# Publication PMC1177995 (Virology Journal, 2005)
# Where a SMILES comes first, the peptide text is derived from it.
# What was measured:
# DENV strain New Guinea-2 = format: cell-based, dengue virus
# WNV strain Egypt 101 = format: cell-based, West Nile virus; conditions: 100 μg/ml, compared to the original peptide
compound,measurement,setting,value
CC[C@H](C)[C@H](NC(=O)[C@H](C)NC(=O)CNC(=O)[C@H](Cc1ccccc1)NC(=O)[C@@H](NC(=O)[C@H](CCC(N)=O)NC(=O)[C@H](Cc1c[nH]cn1)NC(=O)[C@H](CC(C)C)NC(=O)[C@H](C)NC(=O)[C@H](CCCCN)NC(=O)CNC(=O)[C@@H](NC(=O)[C@H](CO)NC(=O)[C@@H](NC(=O)[C@H](Cc1ccccc1)NC(=O)[C@@H](NC(=O)CNC(=O)CNC(=O)[C@H](CC(C)C)NC(=O)[C@H](CO)NC(=O)CNC(=O)[C@H](Cc1ccccc1)NC(=O)[C@H](CC(=O)O)NC(=O)[C@H](Cc1c[nH]c2ccccc12)NC(=O)[C@H](C)NC(=O)[C@@H](NC(=O)[C@H](CC(=O)O)NC(=O)CNC(=O)[C@H](CC(C)C)NC(=O)[C@@H](NC(=O)[C@H](C)NC(=O)[C@@H](N)CCSC)[C@@H](C)CC)[C@@H](C)O)C(C)C)[C@@H](C)O)[C@@H](C)CC)C(C)C)C(=O)N[C@@H](Cc1ccc(O)cc1)C(=O)O [DN59] (H-MAILGDTAWDFGSLGGVFTSIGKALHQVFGAIY-OH),maximum inhibitory activity against DENV,"DENV strain New Guinea-2; at 20 μM, dose-response, mean +/- SD, triplicate",100.0 +/- 0.5%
VATWHLDWSREFPLFLMNS [Scrambled WN83],inhibitory effect of scrambled peptide against WNV,WNV strain Egypt 101,no inhibitory activity
YFIDTSGAIWGASHLTGVLFDFMGIQGGAVLAK [Scrambled DN59],inhibitory effect of scrambled peptide against DENV,"DENV strain New Guinea-2; 100 μg/ml, compared to the original peptide",no inhibitory activity
